Like-named read-outs stand apart in the source and are kept apart here.
Target: T1, human Kir2.1 (Homo sapiens, UniProt P63252)
T1 construct: expressed in transfected cells
T1 sequence (P63252 1-427): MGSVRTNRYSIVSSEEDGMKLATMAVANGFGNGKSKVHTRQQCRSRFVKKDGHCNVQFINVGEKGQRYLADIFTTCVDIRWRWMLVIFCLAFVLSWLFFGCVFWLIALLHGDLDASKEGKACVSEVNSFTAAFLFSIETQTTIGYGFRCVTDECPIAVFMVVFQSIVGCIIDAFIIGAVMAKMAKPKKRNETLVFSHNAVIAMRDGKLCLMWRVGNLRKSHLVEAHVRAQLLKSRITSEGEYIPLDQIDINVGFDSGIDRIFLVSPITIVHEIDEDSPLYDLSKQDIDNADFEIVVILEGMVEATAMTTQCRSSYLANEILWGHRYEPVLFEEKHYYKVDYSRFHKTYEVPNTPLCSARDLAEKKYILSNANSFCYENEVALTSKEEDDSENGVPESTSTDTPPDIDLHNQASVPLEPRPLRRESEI
Test: Kir2.1 thallium flux assay
Type: cell-based
Settings: for Emax / Thallium Flux Efficacy (% Inhibition): efficacy from 4PL fit, relative to ML133; for Emax: read-out: Thallium Flux Efficacy (% Inhibition)
Description: Thallium Flux Assay Experimental Conditions
The Tl+ flux assays were conducted as previously described with modifications optimized for Kir2.1 cell line as described below.1
Briefly, stable T-REx-HEK-293 cells expressing human K ir2.1 were cultured in DMEM growth medium (Catalog #11965-092, Gibco, Billings, MT) containing 10% heat-inactivated FBS (Catalog #16140, Gibco), 100 U/mL PenStrep, 5 μg/mL Blasticidin S, and 250 μg/mL Hygromycin.
The day prior to the experiment, cells at ~90% confluency were resuspended in plating media, which consisted of the same components as the growth media, except that heat-inactivated FBS was replaced with dialyzed FBS (Catalog #26400, Gibco). Tetracycline was added to the plating media to achieve a final concentration of 1 μg/ml to induce hKir2.1 expression. Cells were then counted and plated at 15,000 cells/well in black-walled, amine- or PDL- coated, 384-well plates at 20 μl/well (Corning, Corning, NY). On the day of experiment, the media was removed from the cell plate and replaced with 20 μl/well of Tl+-sensitive dye loading solution containing 2.5 μg/ml Thallos-AM (Catalog #11000-050, ION Biosciences, San Marcos, TX) in assay buffer using a Multidrop Combi dispenser (Thermo Fisher Scientific, Walkham, MA). Cell plates loaded with dye solution were incubated for 1 hour at room temperature. Following incubation, the cell plate was washed with HBSS assay buffer containing 20 mM HEPES using a BioTek ELx 405 TS plate washer (Agilent, Santa Clara, CA), leaving 20 μl of assay buffer in each well. The cell plate was then transferred to a Panoptic kinetic imaging plate reader (WaveFront Biosciences, Franklin, TN) for imaging at 1 Hz, 482/35 nm excitation and 536/40 nm emission for 10 seconds. Following this, 20 μl/well of HBSS assay buffer containing test compounds at 2-fold over their final concentrations were added and imaging continued for another eight minutes, after which 10 μl/well of chloride-free Tl+ stimulus solution was added (Catalog #11000-050, ION Biosciences). The final Tl2SO4 concentration in cell plate post-Tl+ stimulus solution addition was 0.25 mM. Images were collected for an additional two minutes. A ten-point concentration series from 30 μM to 2 nM with a 1:3 dilution factor was generated using an Echo liquid handler 650 (Labcyte, San Jose, CA). Final DMSO concentration, 0.3% (v/v) in the assay was constant across all compound concentrations.
The initial slopes of the Tl+-induced fluorescence changes were fit to a four-parameter logistic equation using our in-house software Waveguide to determine potency and efficacy values. […]
Bauer, J. A.; Days, E. L.; Lindsley, C. […]

[1] = T-REx-HEK-293 cells expressing human Kir2.1, 4PL fit, top concentration 30 μM, read-out: Thallium Flux Potency IC50

Thallium flux potency relative to ML133	IC50 [1]	Emax	Thallium Flux Efficacy (% Inhibition)	IC50 (mean ± SEM over 9 experimental plates in triplicate, read-out: Thallium flux pIC50 (converted))	SMILES
–	4.9 µM	100%	–	–	COc1ccc(CNCc2ccc(-c3cccc(C#N)c3)cc2)cc1 [Compound 5t]
equipotent	11.1 µM	102%	–	–	[2H]C([2H])([2H])Oc1ccc(CNCc2cccc3ccccc23)cc1 [Compound 7]
–	–	–	100%	–	[2H]C([2H])([2H])Oc1ccc(CNCc2ccc(-c3cccc(OC)c3)cc2)cc1 [Compound 9]
–	–	–	100%	–	[2H]C([2H])([2H])Oc1cccc(-c2ccc(CNCc3ccc(OC)cc3)cc2)c1 [Compound 11]
–	–	–	100%	–	[2H]C([2H])([2H])Oc1ccc(CNCc2ccc(-c3cccc(OC([2H])([2H])[2H])c3)cc2)cc1 [Compound 13]
–	10.1 µM	101%	–	10.5 µM	COc1ccc(CNCc2cccc3ccccc23)cc1 [ML133, N-(4-methoxybenzyl)-1-(naphthalen-1-yl)methanamine, reference compound]

Continued, compound first:

SMILES	Thallium flux potency relative to ML133	IC50 [1]	Emax	Thallium Flux Efficacy (% Inhibition)	IC50 (mean ± SEM over 9 experimental plates in triplicate, read-out: Thallium flux pIC50 (converted))
COc1ccc(CNCc2ccc3c(c2)OC(F)(F)O3)cc1 [Compound 5h]	equipotent	11.2 µM	99%	–	–
COc1ccc(CNCc2cccc(-c3ccccc3)c2)cc1 [Compound 5j]	–	12.8 µM	106%	–	–
COc1ccc(CNCc2ccc(-c3ccccc3)cc2)cc1 [Compound 5k]	–	8.2 µM	101%	–	–
COc1ccc(CNCc2ccc(-c3cccc(F)c3)cc2)cc1 [Compound 5p]	–	8.1 µM	99%	–	–
COc1ccc(CNCc2ccc(-c3cccc(OC)c3)cc2)cc1 [Compound 5s, 1-(3′-Methoxy-[1,1’-biphenyl]-4-yl)-N-(4-methoxybenzyl)methanamine]	–	5.9 µM	101%	–	–

Source: publication PMC12434521, “Characterization of Next-Generation Inhibitors for the Inward-Rectifier Potassium Channel Kir2.1: Discovery of VU6080824” (ACS Medicinal Chemistry Letters, 2025)
